Measured values reported in patent US20120208848A1 (NEUROSYSTEC CORPORATION, priority 2005, published 2012).

Assays:
Type in all cases: physicochemical
[1] = Solubility of gacyclidine chloride salt and free base in water / Ringer's solution
Source text: The free base form of gacyclidine is poorly soluble in water and adheres to plastic surfaces.

[2] = Maintenance of gacyclidine in solution (HPLC solution concentration over time); details: 20° C.
Description: Gacyclidine was detected using a Surveyor HPLC system (Thermo Electron). A Grace Vydac C8 MASS SPEC column (cat #208MS5210; S/N NE981208-3-7) purchased from The Nest Group (Southboro, Mass.) was employed for these analyses. The chromatographic column was maintained at 30° C. Samples were prepared in 12 mm×32 mm autosampler vials (Thermo Electron, A4954-010) and maintained at 20° C. in the autosampler.
For maximum accuracy, a ‘full-loop’ injection protocol was employed, in which 80.7 μL was withdrawn from the vial to over-fill a 20 μL injection loop. The entire sample contained in the 20 μL injection loop was applied to the C8 chromatography column. The sample was then eluted at a flow rate of 300 μL/min with a step gradient composed of water containing 0.1% (volume/volume) trifluoroacetic acid (buffer A) and acetonitrile containing 0.1% (volume/volume) trifluoroacetic acid (buffer B). The step gradient consisted of elution with 100% buffer A from 0 to 5 minutes; 80% buffer A-20% buffer B from 5 to 15 minutes; 100% buffer B from 15 to 20 minutes and 100% buffer A from 20 to 25 minutes.
The column eluant was monitored at 234 nm by use of a Thermo Electron PDA UV detector. […] The presence of gacyclidine was confirmed by connecting the column eluant, after passage through the UV detector, to an AQA mass spectrometer (Thermo Electron).
An aliquot (10 μL) of these solutions was then added to 10.0 mL of either Ringer's Lactate (pH 6.6), Ringer's Lactate containing 100 μM NaOH (pH 7.5), or 0.1 N HCl (pH 1.0) to give a final drug concentration of 100 μM. Aliquots of these drug solutions were transferred to autosampler vials and maintained at 20° C. until being analyzed by HPLC.

[3] = Gacyclidine remaining in solution as a function of pH and excipients, 37° C., polypropylene vials
Description: This same procedure was conducted at 37° C., and the samples were maintained in polypropylene vials (VWR # 20170-710, 2 mL vial).

[4] = Gacyclidine decomposition in Ringer's Lactate at 37° C.
Description: To monitor piperidine formation a Zorbax SB-CN column (25×0.46 cm, 5 μm; PN 880975, SN USS F01 3866) purchased from Agilent Technologies was maintained at 30° C. and eluted with a mixture composed of 50% Buffer A and 50% Buffer B at 150 μL/minute for 60 minutes. Buffer A was composed of water containing 0.1% trifluoroacetic acid and Buffer B was composed of acetonitrile containing 0.1% trifluoroacetic acid. The effluent from this column was interfaced with an AQA single quadrupole mass spectrometer (Thermo Electron) and a Surveyor PDA detector (UV monitor, Thermo Electron). The column effluent was monitored at 232 nm and scans were collected between 200 to 300 nm by use of the PDA detector. […] Piperidine was detected by the mass spectrometer at 16.0 minutes after injection onto the Zorbax SB-CN column (at m/z=86 only). Piperidine could not be detected by use of the PDA (UV monitor).
The pH of these Ringer's Lactate solutions was adjusted by addition of hydrochloric acid or sodium bicarbonate ([…]). […] To analyze these samples for gacyclidine and piperidine, the samples were first extracted with methylene chloride and then back-extracted into dilute hydrochloric acid. To the 0.40 mL sample to be analyzed were added 50 μL of 1.0 M sodium hydroxide and 0.8 mL of methylene chloride. After vigorous mixing, the aqueous and methylene chloride layers were allowed to separate. To 0.4 mL of the methylene chloride phase were added 20 μL of 1.0 M hydrochloric acid and 0.78 mL of water. After vigorous mixing, the aqueous and methylene chloride layers were allowed to separate and the aqueous layer was analyzed for gacyclidine and piperidine. This extraction procedure was necessary to remove the salt present in the sample for optimum detection of piperidine.

[5] = Effect of pH on gacyclidine decomposition and solubility in Ringer's solution at 55° C.; details: 100 μM in Ringer's solution, 24 hours, pH 7.3 to 8.1, no excipient
Description: These samples were then incubated at 55° C. for 24 hours.
The pH of each sample was determined at 55° C. by use of a pH meter standardized at 55° C. The pH meter, electrode and standards were the same as described in Example 3.

[6] = excess free base added to a solution at physiological pH
[7] = 0.1% SOLUTOL HS15, 37° C., polypropylene vials
[8] = 0.1% TWEEN 80, 37° C., polypropylene vials

In the case of `CC1CCCCC1(c1cccs1)N1CCCCC1.Cl` (centres unmarked) [gacyclidine, 1-(2-methyl-1-thiophen-2-yl-cyclohexyl)-piperidine hydrochloride], the pH of solution ([1]; chloride salt, up to 150 mg/ml in water or unbuffered solution) is reported as “about 4.4”, the “final concentration of dissolved gacyclidine” value [1, 6] is reported as no more than 0.02 mg/mL and the pH of solution [1, 6] is reported as no more than 7.7. For the same compound, the solubility ([1]; pH 4.4, chloride salt of the acid form, water or unbuffered Ringer's solution, read-out: solubility (solutions containing up to)) was no more than 150000 µg/mL, the “gacyclidine remaining in solution (HPLC)” value ([1]; pH 9.5, 0.05 M CAPSO, 0.1 M NaCl, 0.3 mg/mL added, room temperature, 2 days) was 0.0006 mg/mL and the solubility thermodynamic ([1]; saline or isotonic, thermodynamic from solid, free base in Ringer's solution reacting with dissolved carbon dioxide, pH 7.6) was roughly 20 µg/mL. It also gave a concentration of gacyclidine ([2]; DMSO stock 1:1000 (0.1% DMSO), Ringer's Lactate pH 7.5, 100 μM initial, 0-3 hours) of 97.5 µM, a concentration of gacyclidine ([2]; DMSO stock 1:1000, 0.1N HCl (pH 1.0), 100 μM initial, 0-3 hours) of 100.3 µM and a concentration of gacyclidine ([2]; DMSO stock 1:1000, 0.1N HCl (pH 1.0), 100 μM initial, 3-6 hours) of 100.2 µM. The concentration of gacyclidine ([2]; DMSO stock 1:1000, 0.1N HCl (pH 1.0), 100 μM initial, 16-19 hours) was 100.6 µM, the concentration of gacyclidine ([2]; DMSO stock 1:1000, Ringer's Lactate pH 6.6, 100 μM initial, 0-3 hours) was 96.0 µM and the concentration of gacyclidine ([2]; DMSO stock 1:1000, Ringer's Lactate pH 6.6, 100 μM initial, 3-6 hours) was 94.9 µM. For the same compound, the concentration of gacyclidine ([2]; DMSO stock 1:1000, Ringer's Lactate pH 6.6, 100 μM initial, 16-19 hours) was 91.3 µM, the concentration of gacyclidine ([2]; DMSO stock 1:1000, Ringer's Lactate pH 7.5, 100 μM initial, 3-6 hours) was 90.4 µM and the concentration of gacyclidine ([2]; DMSO stock 1:1000, Ringer's Lactate pH 7.5, 100 μM initial, 16-19 hours) was 79.3 µM. The concentration of gacyclidine ([2]; aqueous stock 1:1000, 0.1N HCl (pH 1.0), 100 μM initial, 0-3 hours) was 99.4 µM, the concentration of gacyclidine ([2]; aqueous stock 1:1000, 0.1N HCl (pH 1.0), 100 μM initial, 3-6 hours) was 99.8 µM and the concentration of gacyclidine ([2]; aqueous stock 1:1000, 0.1N HCl (pH 1.0), 100 μM initial, 16-19 hours) was 100.2 µM. For the same compound, the concentration of gacyclidine ([2]; aqueous stock 1:1000, Ringer's Lactate pH 6.6, 100 μM initial, 0-3 hours) was 95.1 µM, the concentration of gacyclidine ([2]; aqueous stock 1:1000, Ringer's Lactate pH 6.6, 100 μM initial, 3-6 hours) was 92.6 µM and the concentration of gacyclidine ([2]; aqueous stock 1:1000, Ringer's Lactate pH 6.6, 100 μM initial, 16-19 hours) was 87.7 µM. The concentration of gacyclidine ([2]; aqueous stock 1:1000, Ringer's Lactate pH 7.5, 100 μM initial, 0-3 hours) was 88.2 µM, the concentration of gacyclidine ([2]; aqueous stock 1:1000, Ringer's Lactate pH 7.5, 100 μM initial, 3-6 hours) was 72.0 µM and the concentration of gacyclidine ([2]; aqueous stock 1:1000, Ringer's Lactate pH 7.5, 100 μM initial, 16-19 hours) was 59.7 µM. For the same compound, the “solubility of the basic form with excipient” value ([3]; 0.1% CAPTISOL, 37° C., polypropylene containers) was “did not result in a clearly defined solubility”, the “gacyclidine retained in solution at high pH” value [3, 7] was roughly 32 μM and the “gacyclidine retained in solution at high pH, % of total gacyclidine added” value [3, 7] was roughly 3.2%. The “gacyclidine retained in solution at high pH” value [3, 8] was “about 20 μM”, the “gacyclidine retained in solution at high pH, % of total gacyclidine added” value [3, 8] was roughly 2.0% and the solubility kinetic at 2 days ([3]; buffered aqueous solution, aqueous buffer, pH 9.2, 37° C., polypropylene vials, presence or absence of 0.1% SOLUPHOR P) was roughly 1 µM. The “gacyclidine remaining in solution, % of the total gacyclidine added” value ([3]; pH 9.2, 37° C., polypropylene vials, presence or absence of 0.1% SOLUPHOR P) was roughly 0.1%, the pKa ([4]; Ringer's Lactate solution, 37° C., from decomposition rates, read-out: apparent pKA) was 7.6 and the “Time for 10% Loss (37° C., Ringer's Lactate)” value (from here on “Time for 10% Loss”) ([4]; pH 5.5, 100 μM gacyclidine) was 3.7 ± 0.1 days. The “Time for 10% Loss” value ([4]; pH 6.0, 100 μM gacyclidine) was 3.82 ± 0.03 days, the “Time for 10% Loss” value ([4]; pH 7.4, 100 μM gacyclidine) was 6.1 ± 0.4 days and the “decomposition rate as % of the rate expected for the acid form” value ([4]; pH 7.4, 37° C., Ringer's Lactate) was 62%. For the same compound, the “fraction of gacyclidine in the acid form” value ([4]; pH 7.4 and 37° C.) was 62% and the “loss of gacyclidine from solution” value [5] was “loss of gacyclidine both by decomposition and by precipitation from solution”.
